Data from US12540913B2, “Chemical sensor, reagent, and method for detecting benzoic acid and benzoic acid derivative” (KABUSHIKI KAISHA TOSHIBA, priority 2023, dated 2026).
Where two headings read alike, the source gives them in different places.

Molecular target: cocaine aptamer
Details: for Kd: read-out: dissociation constant Kd

| Compound | Kd (Comparative Example 1: 1 mM methyl benzoate titrated into 50 μM cocaine aptamer in D-PBS(−), no tropane derivative, binding order 1) [µM] | Kd (Example 1: 1 mM methyl benzoate titrated into 50 μM cocaine aptamer in D-PBS(−) containing 10 μM tropine) [µM] | ITC heat generation (Comparative Example 2: 1 mM tropine titrated into 50 μM cocaine aptamer in D-PBS(−)) | ITC heat generation (Comparative Example 3: 1 mM tropine titrated into 50 μM cocaine aptamer in D-PBS(−) containing 10 μM methyl benzoate) |
| --- | --- | --- | --- | --- |
| COC(=O)c1ccccc1 [methyl benzoate] | 87.7 | 69.7 | – | – |
| CN1[C@@H]2CC[C@H]1C[C@@H](O)C2 [tropine] | – | – | no heat generation was observed | no heat generation was observed |
